Measured values from patent US20050159599A1, “Cyclic compound, process for producing the same, and pest control agent” (priority 2002, published 2005).

Legend:
Plutella xylostella [1] = assay: Pest control effect for Plutella xylostella by plant seedling foot soil surface irrigation treatment, 24th day (Test Example 6); type: in vivo; details: 20 mg/plant; soil surface irrigation of cabbage; larvae counted on the 24th day
Experimental: Pest Control Effect for Plutella xylostella by Plant Seedling Foot Soil Surface Irrigation Treatment With Pesticidal Solution
A pesticidal solution which was prepared by dissolving 20 mg of test compound (represented by the compound Nos. in the above Examples) in 0.2 ml of acetone containing Tween 20 (trade name) and then diluting to 3 ml with ion-exchange water, was irrigated on the plant foot soil surface of 2.5-leave stage cabbage. This cabbage plant was transplanted to 1/5000a pot, and left in a facility wherein imagoes of Plutella xylostella were set free to lay eggs successively. On the 24th day after, the number of lavae on the plant was examined. The rate of pest control was calculated by the following formula. rate of pest control (%)=(1−number of pests in treated plant/number of pests in non-treated-plant)×100

Spodoptera litura [2] = assay: Insecticidal effect for Spodoptera litura by spraying treatment to host crop (Test Example 2); type: in vivo; details: 100 ppm, sprayed on soybean, third-instar larvae of Spodoptera litura, fifth day after; for pest or weed control at 100 ppm: 120 h, read-out: rate of dead pests (%)
Procedure, shortened: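 Ten third-instar larvae held at 25° C. on two excised primary soybean leaves previously sprayed to dripping with 100 ppm test solution. Mortality (%) calculated from dead versus tested larvae on the fifth day.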

Spodoptera litura [3] = assay: Insecticidal effect for Spodoptera litura by immersion treatment of host crop root (Test Example 4); type: in vivo; details: 25 ppm, soybean root immersion 5 days, second-instar larvae of Spodoptera litura, fifth day after; for pest or weed control at 25 ppm: 120 h, read-out: rate of dead pests (%)
Procedure, shortened: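 Soil was washed from the roots of soybean plants at the primary-leaf stage, and the roots were immersed in a pesticidal solution held in a light-shielded 100 ml Erlenmeyer flask. The solution was made from acetone containing Tween 20, diluted with ion-exchange water. Five days after root immersion, two primary leaves were cut and placed in a 180 ml cup with ten second-instar Spodoptera litura larvae, then kept at 25° C. Survivors were counted five days later. The rate of dead pests (%) was calculated as dead pests divided by test pests, times 100.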

Plutella xylostella [4] = assay: Insecticidal effect for Plutella xylostella by immersion treatment of host crop root (Test Example 3); type: in vivo; details: 25 ppm, cabbage root immersed 5 days, ten second-instar larvae on stem and leaves, counted on the fifth day, 24° C.
Experimental: Insecticidal Effect for Plutella xylostella by Immersion Treatment of Host Crop Root
Roots of 4-leave stage cabbage was washed with tap water to remove soil, and then immersed in a pesticidal solution which was prepared by dissolving 5 mg of test compound (represented by the compound Nos. in the above Examples) in 0.5 ml of acetone containing Tween 20 (trade name) and then diluting it to the prescribed concentration (25 ppm) with ion-exchange water, and which was filled in a light-shielded Erlenmeyer flask (100 ml). On the fifth day after immersion of root, the root was cut off, and the stem and leaves were put into an ice cream cup (180 ml). Ten second-instar larvae of Plutella xylostella were set free therein, and the cup was left in a temperature-controlled breeding room (24° C.). On the fifth day after, the number of surviving Plutella xylostella was examined. The rate of dead pests was calculated by the following formula. rate of dead pests (%)=(number of dead pests/number of test pests)×100

Plutella xylostella [5] = assay: Insecticidal effect for Plutella xylostella by immersion treatment of host crop (Test Example 1); type: in vivo; details: cabbage leaf dipped, second-instar larvae of Plutella xylostella, fifth day after; for rate of dead pests (%): 100 ppm; for pest or weed control at 100 ppm: foliar, 120 h, read-out: rate of dead pests (%)
Experimental: Insecticidal Effect for Plutella xylostella by Immersion Treatment of Host Crop One true leaf of 7 to 8-leave stage cabbage was cut off and dipped in a pesticidal solution for a few seconds, which was prepared by dissolving 5 mg of test compound (represented by the compound Nos. in the above Examples) in 0.5 ml of acetone containing Tween 20 (trade name) and then diluting it to the prescribed concentration (100 ppm) with Dain (trade name, sticker) water diluted 5000-fold. After drying the pesticidal solution, the leaf was put into an ice cream cup (180 ml), and ten second-instar larvae of Plutella xylostella were set free therein. The cup was left in a temperature-controlled breeding room (24° C.). On the fifth day after, the number of surviving Plutella xylostella was examined. The rate of dead pests was calculated by the following formula. rate of dead pests (%)=(number of dead pests/number of test pests)×100

Tetranychus urticae = assay: Acaricidal effect for Tetranychus urticae (Test Example 5); type: in vivo; details: 100 ppm (table); spray on kidney bean with ten female imagoes; survivors counted on second and seventh day, 25° C.
Experimental: Acaricidal Effect for Tetranychus urticae
Ten female imagoes Tetranychus urticae were set free on a kidney bean wherein primary leaves had just developed. On the following day, a pesticidal solution, which was prepared by dissolving 5 mg of test compound (represented by the compound Nos. in the above Examples) in 0.5 ml of acetone containing Tween 20 ([…]) with Dain (trade name, sticker) water diluted 5000-fold, was sprayed with spray gun in the amounts wherein the pesticidal solution dripped. The kidney bean was left in a temperature-controlled breeding room (25° C.). On the second and seventh day after treatment, the number of surviving Tetranychus urticae was examined. The rate of decrease was calculated by the following formula. rate of decrease (%)=(1−(S2/(5.59×(10+(10+S1)/2+S1))))×100 In the above formula, • S1; the number of surviving imagoes on the second day after • S2; the number of surviving pests on the seventh day after […]

Structure (SMILES) | rate of pest control (%) (Plutella xylostella [1]) | rate of dead pests (%) (Spodoptera litura [2]) | rate of dead pests (%) (Plutella xylostella [5]) | rate of decrease (%) (Tetranychus urticae) | further results
O=C(c1c(F)cccc1F)N1COCN(c2cc(Cl)c(F)c(Cl)c2F)C1=O [I-4] | 92 | 100 |  |  | rate of dead pests (%) (Spodoptera litura [3]): 100%; rate of dead pests (%) (Plutella xylostella [4]): 95%
O=C(c1c(F)cccc1F)N1COCN(c2ccc(SC(F)(F)F)cc2)C1=O [I-25] | 88 |  | 100 |  | 
O=C(c1c(F)cccc1F)N1COCN(c2ccc([S+]([O-])C(F)(F)F)cc2)C1=O (centres unmarked) [I-26] | 100 | 100 | 100 |  | rate of dead pests (%) (Spodoptera litura [3]): 100%; rate of dead pests (%) (Plutella xylostella [4]): 100%
C[S+]([O-])c1ccc(N2COCN(C(=O)c3c(F)cccc3F)C2=O)c(F)c1 (centres unmarked) [I-29] | 92 | 100 | 100 |  | rate of dead pests (%) (Spodoptera litura [3]): 100%; rate of dead pests (%) (Plutella xylostella [4]): 100%
O=C(c1c(F)cccc1F)N1COCN(c2ccc([S+]([O-])C(F)(C(F)(F)F)C(F)(F)F)cc2F)C1=O (centres unmarked) [I-159, 3-(2,6-difluorobenzoyl)-5-[2-fluoro-4-(1,1,1,2,3,3,3-heptafluoro-2-propylsulfinyl)phenyl]tetrahydro-4H-1,3,5-oxadiazin-4-one] |  |  |  |  | melting point: 40 to 45 °C
O=C(c1c(F)cccc1F)N1CSCN(c2cc(Cl)c(F)c(Cl)c2F)C1=O [II-10] | 88 | 100 | 100 |  | rate of dead pests (%) (Spodoptera litura [3]): 100%
CN1CN(C(=O)c2c(F)cccc2F)C(=O)N(c2ccc(Oc3ccc(C(F)(F)F)cc3Cl)cc2F)C1 [III-21] |  | 100 |  | 99 | 
C=CCN1CN(C(=O)c2c(F)cccc2F)C(=O)N(c2ccc(Oc3ccc(C(F)(F)F)cc3Cl)cc2F)C1 [III-24] |  | 100 | 100 | 95 | 
CC(C)N1CN(C(=O)c2c(F)cccc2F)C(=O)N(c2ccc(Oc3ccc(C(F)(F)F)cc3Cl)cc2F)C1 [III-25] |  | 100 | 100 | 97 | 
O=C(c1c(F)cccc1F)N1CNCN(c2ccc(Oc3ccc(C(F)(F)F)cc3Cl)cc2F)C1=O [III-27, 1-[4-(2-chloro-4-trifluoromethylphenoxy)-2-fluorophenyl]-3-(2,6-difluorobenzoyl)tetrahydro-1,3,5-triazin-2(1H)-one] |  |  |  | 96 | pest or weed control at 100 ppm (Spodoptera litura [2]): 100%; pest or weed control at 100 ppm (Plutella xylostella [5]): 100%
COC(=O)SN1CN(C(=O)c2c(F)cccc2F)C(=O)N(c2ccc(Oc3ccc(C(F)(F)F)cc3Cl)cc2F)C1 [III-31] |  | 100 | 100 | 99 | 
O=C(c1c(F)cccc1F)N1CN(S(=O)(=O)C(F)(F)F)CN(c2ccc(Oc3ccc(C(F)(F)F)cc3Cl)cc2F)C1=O [III-35] |  | 100 |  | 97 | 
COC(=O)C(=O)N1CN(C(=O)c2c(F)cccc2F)C(=O)N(c2ccc(Oc3ccc(C(F)(F)F)cc3Cl)cc2F)C1 [III-37, Methyl 2-[3-[4-(2-chloro-4-trifluoromethylphenoxy)-2-fluorophenyl]-5-(2,6-difluorobenzoyl)hexahydro-4-oxo-1,3,5-triazin-1-yl]-2-oxoacetate] |  |  |  | 97 | pest or weed control at 100 ppm (Spodoptera litura [2]): 100%; pest or weed control at 25 ppm (Spodoptera litura [3]): 95%
O=C(O)C(=O)N1CN(C(=O)c2c(F)cccc2F)C(=O)N(c2ccc(Oc3ccc(C(F)(F)F)cc3Cl)cc2F)C1 [III-38, 2-[3-[4-(2-chloro-4-trifluoromethylphenoxy)-2-fluorophenyl]-5-(2,6-difluorobenzoyl)hexahydro-4-oxo-1,3,5-triazin-1-yl]-2-oxoacetic Acid] |  |  |  | 98 | pest or weed control at 100 ppm (Spodoptera litura [2]): 100%; pest or weed control at 25 ppm (Spodoptera litura [3]): 100%; pest or weed control at 25 ppm (Plutella xylostella [4]; Plutella xylostella, 120 h, read-out: rate of dead pests (%)): 90%
O=C(OCc1ccccc1)C(=O)N1CN(C(=O)c2c(F)cccc2F)C(=O)N(c2ccc(Oc3ccc(C(F)(F)F)cc3Cl)cc2F)C1 [III-39, Benzyl 2-[3-[4-(2-chloro-4-trifluoromethylphenoxy)-2-fluorophenyl]-5-(2,6-difluorobenzoyl)hexahydro-4-oxo-1,3,5-triazin-1-yl]-2-oxoacetate] |  |  |  | 97 | pest or weed control at 100 ppm (Spodoptera litura [2]): 100%; pest or weed control at 100 ppm (Plutella xylostella [5]): 100%
NC(=O)C(=O)N1CN(C(=O)c2c(F)cccc2F)C(=O)N(c2ccc(Oc3ccc(C(F)(F)F)cc3Cl)cc2F)C1 [III-41] |  | 100 | 100 | 97 | 
CNC(=O)C(=O)N1CN(C(=O)c2c(F)cccc2F)C(=O)N(c2ccc(Oc3ccc(C(F)(F)F)cc3Cl)cc2F)C1 [III-42] |  | 100 |  | 98 | 
O=C(CBr)N1CN(C(=O)c2c(F)cccc2F)C(=O)N(c2ccc(Oc3ccc(C(F)(F)F)cc3Cl)cc2F)C1 [III-44] |  | 100 | 100 | 96 | 
CSCC(=O)N1CN(C(=O)c2c(F)cccc2F)C(=O)N(c2ccc(Oc3ccc(C(F)(F)F)cc3Cl)cc2F)C1 [III-45] |  | 100 | 100 | 100 | 
C[S+]([O-])CC(=O)N1CN(C(=O)c2c(F)cccc2F)C(=O)N(c2ccc(Oc3ccc(C(F)(F)F)cc3Cl)cc2F)C1 (centres unmarked) [III-46] |  |  |  | 97 | 
CON(C)C(=O)C(=O)N1CN(C(=O)c2c(F)cccc2F)C(=O)N(c2ccc(Oc3ccc(C(F)(F)F)cc3Cl)cc2F)C1 [III-48] |  |  | 100 | 95 | 
CONC(=O)C(=O)N1CN(C(=O)c2c(F)cccc2F)C(=O)N(c2ccc(Oc3ccc(C(F)(F)F)cc3Cl)cc2F)C1 [III-49] |  | 100 |  | 96 | rate of dead pests (%) (Spodoptera litura [3]): 95%
O=C(c1c(F)cccc1F)N1CNCN(c2ccc(SC(F)(F)C(F)Cl)cc2F)C1=O (centres unmarked) [III-78] | 83 | 100 | 100 |  | 
CN1CN(C(=O)c2c(F)cccc2F)C(=O)N(c2ccc([S+]([O-])C(F)(F)C(F)Cl)cc2F)C1 (centres unmarked) [III-84] | 100 | 100 | 100 |  | 
C#CCN1CN(C(=O)c2c(F)cccc2F)C(=O)N(c2ccc([S+]([O-])C(F)(F)C(F)Cl)cc2F)C1 (centres unmarked) [III-89] | 92 | 100 | 100 |  | rate of dead pests (%) (Plutella xylostella [4]): 100%
